Several values for one entry are separate records, joined by “and”; a condition that tells them apart may be missing. Identical values can stand only once.
Key:
[1] = Residual unreacted amustaline by LCMS, Example 1 (treatment container; samples moved to separate containers); format: physicochemical; details: for Residual amustaline levels in pathogen-inactivated whole blood, 21 hr / Residual amustaline levels in pathogen-inactivated whole blood, 24 hr / Residual amustaline levels in pathogen-inactivated whole blood, 27 hr / Residual amustaline levels in pathogen-inactivated whole blood, 30 hr / Residual amustaline levels in pathogen-inactivated whole blood, 33 hr / Residual amustaline levels in pathogen-inactivated whole blood, 36 hr / Residual amustaline levels in pathogen-inactivated whole blood, 42 hr: no transfer, 0.2 mM amustaline, 2.0 mM GSH
Experimental: Pathogen inactivated whole blood was prepared with the pathogen inactivation compound, amustaline, and the quencher glutathione (Henschler et al., 2011, Transfus Med Hemother 38:33-42), in a kit of the present disclosure comprising a treatment container and tubing with a 3-way branch for introducing the amustaline/GSH (e.g., a “filter set”) comprising two in line filters for coupling (e.g., connecting) containers (e.g., syringes) of PIC and quencher, and the third branch coupled to (e.g., connected to) a sample diversion pouch (e.g., FIG. 3b). More specifically, four ABO-matched whole blood units containing anticoagulant were pooled and split into 8 half units (225 mL/half unit), added into each of eight treatment bags by connecting the pooled donor blood bag containing the whole blood to the treatment container by way of the tubing and using a tubing welder. Following transfer of the whole blood into the treatment containers, the pooled donor blood bag was removed by sealing and severing the tubing, and the filter set was sterile coupled using a tubing welder to the same input port of the treatment container via the remaining tubing. Amustaline and GSH were added to final concentrations of 0.2 mM and 2.0 mM, respectively. GSH was added first, followed by addition of amustaline, either within 5 minutes of GSH addition or after at least 15 minutes hold time, as indicated in Table 1. The mixtures were incubated at 22° C. (Units 1-4) or 25° C. (Units 5-8), with samples removed at the indicated times for analysis by liquid chromatography-mass spectrometry (LCMS) to determine the level of residual, unreacted amustaline.
Additionally, 50 mL of the mixture was removed from each of Units 2 and 8 at 24 hr and divided into two 25 mL samples in separate containers to compare storage at 4° C. versus room temperature, and for evaluation of residual amustaline levels at 2, 4, 6 and 8 hours of storage under those conditions (Table 2).

[2] = Residual unreacted amustaline by LCMS, Example 2 (3-container kit); format: physicochemical
Experimental: Another study was performed to evaluate the effect of container transfer on residual levels of amustaline after pathogen-inactivation of whole blood using a 3-container kit of the present disclosure to allow for one or two transfer steps from the initial (e.g., first) container and a similar filter set as Example 1. Six ABO matched whole blood units in anticoagulant were pooled and split into six ~450 mL units transferred into the first blood bag container of the kit comprising Transfufol 3226 PVC film (Renolit), followed by severing and sealing the pooled donor blood bag, and subsequent connection by tubing welding of a filter set to the same input port (e.g., attached tubing) of the first container, for transferring amustaline and GSH into the whole blood. Amustaline and GSH were added to the whole blood units at final concentrations of 0.2 mM and 2.0 mM, respectively, followed by transfer of the mixture to the second bag (Transfufol 3226 PVC film) and incubated at 22° C. At 22 hr, samples were taken for analysis along with transfer of the mixture to the third bag (Transfufol 3226 PVC film), followed by further incubation at 22° C., with additional samples taken for analysis at 24 hr (i.e., 2 hr post-final transfer) and 26 hr (i.e., 4 hr post-final transfer).
Samples were analyzed by LCMS to determine the level of residual, unreacted amustaline as previously described.

[3] = Units 1-2, amustaline added >15 min after GSH, 22° C. in treatment container
[4] = Units 3-4, amustaline added <5 min after GSH, 22° C. in treatment container
[5] = Units 5-6, amustaline added >15 min after GSH, 25° C. in treatment container
[6] = Units 7-8, amustaline added <5 min after GSH, 25° C. in treatment container

O=C(CCNc1c2ccccc2nc2ccccc12)OCCN(CCCl)CCCl [amustaline]
Residual amustaline levels in pathogen-inactivated whole blood, 21 hr [1, 3]: 3.50 nM and 4.09 nM
Residual amustaline levels in pathogen-inactivated whole blood, 21 hr [1, 4]: 3.45 nM and 3.85 nM
Residual amustaline levels in pathogen-inactivated whole blood, 21 hr [1, 5]: 2.91 nM and 3.21 nM
Residual amustaline levels in pathogen-inactivated whole blood, 21 hr [1, 6]: 3.43 nM and 4.15 nM
Residual amustaline levels in pathogen-inactivated whole blood, 24 hr [1, 3]: 2.62 nM and 2.66 nM
Residual amustaline levels in pathogen-inactivated whole blood, 24 hr [1, 4]: 3.04 nM and 3.53 nM
Residual amustaline levels in pathogen-inactivated whole blood, 24 hr [1, 5]: 2.44 nM and 2.58 nM
Residual amustaline levels in pathogen-inactivated whole blood, 24 hr [1, 6]: 2.86 nM and 3.39 nM
Residual amustaline levels in pathogen-inactivated whole blood, 27 hr [1, 3]: 2.27 nM and 3.07 nM
Residual amustaline levels in pathogen-inactivated whole blood, 27 hr [1, 4]: 3.29 nM and 3.7 nM
Residual amustaline levels in pathogen-inactivated whole blood, 27 hr [1, 5]: 2.55 nM and 2.71 nM
Residual amustaline levels in pathogen-inactivated whole blood, 27 hr [1, 6]: 2.74 nM and 3.30 nM
Residual amustaline levels in pathogen-inactivated whole blood, 30 hr [1, 3]: 2.11 nM and 2.95 nM
Residual amustaline levels in pathogen-inactivated whole blood, 30 hr [1, 4]: 2.67 nM and 2.84 nM
Residual amustaline levels in pathogen-inactivated whole blood, 30 hr [1, 5]: 2.04 nM and 2.49 nM
Residual amustaline levels in pathogen-inactivated whole blood, 30 hr [1, 6]: 2.34 nM and 2.59 nM
Residual amustaline levels in pathogen-inactivated whole blood, 33 hr [1, 3]: 2.61 nM and 2.29 nM
Residual amustaline levels in pathogen-inactivated whole blood, 33 hr [1, 4]: 2.16 nM and 2.22 nM
Residual amustaline levels in pathogen-inactivated whole blood, 33 hr [1, 5]: 1.76 nM and 1.47 nM
Residual amustaline levels in pathogen-inactivated whole blood, 33 hr [1, 6]: 1.64 nM and 2.83 nM
Residual amustaline levels in pathogen-inactivated whole blood, 36 hr [1, 3]: 1.62 nM and 1.38 nM
Residual amustaline levels in pathogen-inactivated whole blood, 36 hr [1, 4]: 1.73 nM and 1.41 nM
Residual amustaline levels in pathogen-inactivated whole blood, 36 hr [1, 5]: 1.89 nM and 1.87 nM
Residual amustaline levels in pathogen-inactivated whole blood, 36 hr [1, 6]: 2.28 nM and 1.97 nM
Residual amustaline levels in pathogen-inactivated whole blood, 42 hr [1, 3]: 1.30 nM and 1.35 nM
Residual amustaline levels in pathogen-inactivated whole blood, 42 hr [1, 4]: 1.66 nM and 1.57 nM
Residual amustaline levels in pathogen-inactivated whole blood, 42 hr [1, 5]: 1.62 nM and 1.22 nM
Residual amustaline levels in pathogen-inactivated whole blood, 2 hr ([1]; Units 2 and 8, 25 mL sample removed at 24 hr into separate container, stored at RT, 2 hr of storage): BLOQ (BLOQ = Below Limit of Quantitation (e.g., < 0.75 nM))
Residual amustaline levels in pathogen-inactivated whole blood, 4 hr ([1]; Units 2 and 8, 25 mL sample removed at 24 hr into separate container, stored at RT, 4 hr of storage): BLOQ (BLOQ = Below Limit of Quantitation (e.g., < 0.75 nM))
Residual amustaline levels in pathogen-inactivated whole blood, 6 hr ([1]; Units 2 and 8, 25 mL sample removed at 24 hr into separate container, stored at RT, 6 hr of storage): BLOQ (BLOQ = Below Limit of Quantitation (e.g., < 0.75 nM))
residual amustaline after transfer to a different container and storage at room temperature ([1]; treatment mixtures from Units 2 and 8, transfer to a different container, further storage at room temperature): below the limit of quantitation
Residual amustaline levels in pathogen-inactivated whole blood, 22 hr ([2]; Units 1-6, 3-container kit (PVC), moved to second bag after amustaline/GSH addition, 22° C., 22 hr, at transfer to third bag): 1.46 nM and 1.39 nM and 1.35 nM and 1.96 nM and 1.84 nM and 1.55 nM
Residual amustaline levels in pathogen-inactivated whole blood, 26 hr ([2]; Units 1-6, 3-container kit (PVC), third bag from 22 hr, 22° C., 26 hr (4 hr post-final transfer)): BLOQ (BLOQ = Below Limit of Quantitation (e.g., < 0.75 nM))
residual amustaline levels after transfer to third bag ([2]; third bag after 22 hr, further 22° C. for 2 hr or 4 hr, all samples): below 1 nM

— patent US12728186B2, “Methods and kits for preparing pathogen-inactivated whole blood” (priority 2018, dated 2026)
